Assay results published in US20050192360A1, “Method of treatment of pancreatic cancer” (priority 1999, published 2005).
Counter-ions that a name gives are not always drawn. Like-named read-outs stand apart in the source and are kept apart here.

Experiments:
[1] = test system: xenografted Panc-1 human pancreatic tumors; assay: Human pancreatic cancer xenograft mouse model, monotherapy or combination with gemcitabine (Example 7); format: in vivo, male athymic nude (Ncr) mice; conditions: for Tumor re-growth after termination of treatment: 19 days post-treatment observation
Protocol: Human pancreatic cancer Panc-1 cells (2×10^6) are implanted subcutaneously into male athymic nude (Ncr) mice. […] The combination therapy group receives β-lapachone and gemcitabine on the same day in each treatment. Following treatment, the animals are observed for an additional 19 days. Tumors are measured throughout the treatment and post-treatment periods.

[2] = test system: E2F-1 protein in Paca-2 cells; assay: Western blot of E2F-1 protein expression; format: cell-based, human
Protocol: Cells are harvested and whole cell lysates were prepared and resolved by SDS/PAGE, then Western blots are prepared using E2F-1 antibody obtained from Santa Cruz Biotechnology (Santa Cruz, Calif.) and an enhanced chemiluminescence assay system (Amersham Pharmacia).

[3] = test system: xenografted Panc-1 human pancreatic tumors; format: in vivo, athymic female nude mice (Ncr); conditions: 5 treatments
Protocol: Athymic female nude mice (Ncr) are inoculated subcutaneously with 4×10^6 human Panc-1 pancreatic cancer cells, and the tumors are allowed to grow to […] in size. The animals are randomized into three groups. […] Mean tumor volume is then analyzed.

[4] = test system: normal cells; assay: In vitro experiments using cell lines of various tissue origins; format: cell-based

## Nc1ccn([C@@H]2O[C@H](CO)[C@@H](O)C2(F)F)c(=O)n1 [gemcitabine, 2′-deoxy-2′,2′-difluorocytidine monohydrochloride (β-isomer), reference compound]
[1]; gemcitabine 120 mg/kg i.p., ten treatments every three days
  Reduction of tumor size at termination of treatment: 30-40%
[1]; gemcitabine 120 mg/kg i.p.
  Tumor re-growth after termination of treatment: 400%

## CC1(C)CCC2=C(O1)c1ccccc1C(=O)C2=O [β-lapachone, 3,4-dihydro-2,2-dimethyl-2H-naphtho[1,2-b]pyran-5,6-dione]
[2]; 0.5 hours exposure
  Concentration at which E2F-1 protein is induced (lowest concentration tested): 0.5 µM
[2]; 0.5 hours exposure, 0.5, 2 or 4 μM
  E2F-1 protein expression (Western blot): upregulated
[3]; 40 mg/kg intraperitoneally every three days
  Mean tumor volume: reduced
[3]; 60 mg/kg intraperitoneally every three days
  Mean tumor volume: reduced
[1]; β-lapachone alone 40 mg/kg i.p., ten treatments every three days
  Tumor regression at termination of treatment: 30-40%
[1]; β-lapachone alone 40 mg/kg i.p.
  Tumor re-growth after termination of treatment: no significant re-growth
[4]
  Toxicity to normal cells in vitro: relatively non-toxic
